From ChEMBL document CHEMBL5108037, “Cyclic Peptide Screening Methods for Preclinical Drug Discovery” (J Med Chem, 2022)
Blank lines part the entries; values can stand above or below the compound they belong to. Starred links: 1 amine or outer side, 2 acyl side, 3 side chain; linkers in the order of their positions; H or OH if unused. Positions of bridges follow the written chain, without caps; N, C: chain ends. Non-standard residues stand in square brackets, D forms with d. Residues, ends and D or L forms follow the SMILES beside them. *: point of attachment. X2 = CC1CCN(C[C@H](N[*:1])C(=O)[*:2])CC1; X3 = NC(=O)CNC[C@H](CSCC(=O)[*:1])N[*:2]; Gly((CH2)5SH) = N[C@@H](CCCCCS)C(=O)O; X1 = O=C(CN(CC[*:3])[*:1])[*:2]; Nle = CCCC[C@H](N)C(=O)O; CH2CH2 = C(C[*:2])[*:1]; Dap = NC[C@H](N)C(=O)O; BrAc = O=C(CBr)*; Mpa = O=C(O)CCS

Assays:
[1] = biological target: T1, TCF4-CTNNB1 complex (Homo sapiens, UniProt P35222); experiment: Binding affinity to FITC-labeled Tcf4 (unknown origin) /6His-tagged beta-catenin (135 to 668 residues) (unknown origin) protein-protein interaction assessed as inhibition constant by fluorescence polarization assay; assay type: protein-complex assay
T1 sequence (P35222 whole entry): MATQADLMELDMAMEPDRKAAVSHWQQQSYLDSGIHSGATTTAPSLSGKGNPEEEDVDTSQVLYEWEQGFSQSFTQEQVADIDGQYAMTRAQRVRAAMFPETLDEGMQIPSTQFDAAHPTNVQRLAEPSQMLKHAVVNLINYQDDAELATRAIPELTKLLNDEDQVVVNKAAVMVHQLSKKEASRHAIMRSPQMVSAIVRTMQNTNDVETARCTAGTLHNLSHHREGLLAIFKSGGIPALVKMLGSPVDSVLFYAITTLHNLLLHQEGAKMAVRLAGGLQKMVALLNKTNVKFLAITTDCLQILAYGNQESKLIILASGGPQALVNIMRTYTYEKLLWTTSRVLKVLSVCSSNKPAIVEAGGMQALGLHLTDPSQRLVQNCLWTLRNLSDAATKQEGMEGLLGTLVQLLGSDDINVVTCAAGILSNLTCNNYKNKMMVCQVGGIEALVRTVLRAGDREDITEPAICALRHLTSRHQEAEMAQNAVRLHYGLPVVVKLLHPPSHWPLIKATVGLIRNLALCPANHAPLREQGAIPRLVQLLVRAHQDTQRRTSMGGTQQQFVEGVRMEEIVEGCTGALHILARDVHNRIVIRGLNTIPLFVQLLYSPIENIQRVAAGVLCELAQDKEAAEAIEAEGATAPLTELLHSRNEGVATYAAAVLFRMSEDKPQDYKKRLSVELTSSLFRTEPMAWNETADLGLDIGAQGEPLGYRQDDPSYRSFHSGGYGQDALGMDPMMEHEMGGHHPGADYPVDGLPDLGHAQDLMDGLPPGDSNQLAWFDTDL
T1 sequence (P15884 whole entry): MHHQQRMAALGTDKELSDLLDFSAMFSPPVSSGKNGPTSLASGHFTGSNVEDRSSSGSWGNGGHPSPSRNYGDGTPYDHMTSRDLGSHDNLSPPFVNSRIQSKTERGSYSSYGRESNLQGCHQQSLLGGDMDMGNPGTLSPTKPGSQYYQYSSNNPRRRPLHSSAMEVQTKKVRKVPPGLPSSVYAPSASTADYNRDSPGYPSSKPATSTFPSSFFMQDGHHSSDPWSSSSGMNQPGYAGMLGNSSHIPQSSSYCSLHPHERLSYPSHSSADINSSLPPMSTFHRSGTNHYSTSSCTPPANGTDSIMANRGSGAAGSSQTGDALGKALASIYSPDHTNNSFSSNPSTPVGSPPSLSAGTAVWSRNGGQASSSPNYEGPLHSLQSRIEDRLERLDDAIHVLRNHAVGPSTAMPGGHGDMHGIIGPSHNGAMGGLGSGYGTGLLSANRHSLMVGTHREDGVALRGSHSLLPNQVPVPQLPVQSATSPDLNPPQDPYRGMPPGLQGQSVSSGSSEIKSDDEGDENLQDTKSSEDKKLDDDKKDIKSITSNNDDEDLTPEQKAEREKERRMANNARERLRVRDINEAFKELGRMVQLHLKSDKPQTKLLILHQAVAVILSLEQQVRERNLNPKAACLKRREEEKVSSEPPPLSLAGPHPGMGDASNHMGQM

[2] = biological target: T2, Kelch-like ECH-associated protein 1 (Homo sapiens, UniProt Q14145); experiment: Inhibition of Keap1 (unknown origin) by ELISA analysis
T2 sequence (Q14145 whole entry): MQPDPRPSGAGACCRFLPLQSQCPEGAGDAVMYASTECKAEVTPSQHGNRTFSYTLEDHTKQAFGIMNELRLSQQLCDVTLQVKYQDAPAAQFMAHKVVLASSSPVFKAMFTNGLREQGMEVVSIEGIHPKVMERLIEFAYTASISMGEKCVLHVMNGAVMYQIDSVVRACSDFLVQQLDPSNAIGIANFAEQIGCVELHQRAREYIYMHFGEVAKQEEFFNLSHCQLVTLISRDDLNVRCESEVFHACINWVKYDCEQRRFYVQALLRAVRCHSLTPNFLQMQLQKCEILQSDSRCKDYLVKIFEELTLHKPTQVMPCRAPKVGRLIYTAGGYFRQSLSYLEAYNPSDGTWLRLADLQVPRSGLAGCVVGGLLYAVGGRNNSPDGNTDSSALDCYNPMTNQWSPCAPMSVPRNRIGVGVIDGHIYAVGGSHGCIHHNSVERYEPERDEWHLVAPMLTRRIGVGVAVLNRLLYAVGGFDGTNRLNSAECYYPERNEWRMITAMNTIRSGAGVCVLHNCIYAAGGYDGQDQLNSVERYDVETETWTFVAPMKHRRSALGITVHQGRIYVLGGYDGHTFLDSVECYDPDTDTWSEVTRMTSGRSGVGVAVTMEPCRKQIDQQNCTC

[3] = biological target: T2, Kelch-like ECH-associated protein 1; experiment: Binding affinity to Keap1 (unknown origin) assessed as dissociation constant by calorimetric analysis
[4] = biological target: GTPase KRas (Homo sapiens, UniProt P01116, G12D); experiment: Inhibition of human His-Avi-TEV-tagged KRAS G12D mutant expressed in Escherichia coli BL21(DE3) by TR-FRET assay
GTPase KRas, sequence (P01116 whole entry G12D): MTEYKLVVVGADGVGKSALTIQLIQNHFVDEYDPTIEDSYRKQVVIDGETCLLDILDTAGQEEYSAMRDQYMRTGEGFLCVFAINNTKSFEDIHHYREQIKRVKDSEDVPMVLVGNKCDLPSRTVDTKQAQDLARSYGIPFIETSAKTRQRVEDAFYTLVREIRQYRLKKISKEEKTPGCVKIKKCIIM

[5] = Binding affinity to Carbonic anhydrase (unknown origin) assessed as dissociation constant by isothermal titration calorimetry; parameters: species or system Homo sapiens
[6] = Antiproliferative activity against human LNCaP-95 cells assessed as cell growth inhibition measured after 24 hrs by CellTiter-Glo assay; assay type: functional, cell-based; details: LNCaP-95, 24 h
[7] = Antiproliferative activity against human LNCaP-abl cells assessed as cell growth inhibition measured after 24 hrs by CellTiter-Glo assay; assay type: functional, cell-based
[8] = Inhibition of FphF (unknown origin) using Cy5-ENLYFQGK(QSY21)-NH2 as substrate incubated for 1 hr by fluorescence based analysis; parameters: species or system Homo sapiens
[9] = biological target: T3, Protein deacetylase HDAC6 (Homo sapiens, UniProt Q9UBN7); experiment: Inhibition of HDAC6 (unknown origin)
T3 sequence (Q9UBN7 whole entry): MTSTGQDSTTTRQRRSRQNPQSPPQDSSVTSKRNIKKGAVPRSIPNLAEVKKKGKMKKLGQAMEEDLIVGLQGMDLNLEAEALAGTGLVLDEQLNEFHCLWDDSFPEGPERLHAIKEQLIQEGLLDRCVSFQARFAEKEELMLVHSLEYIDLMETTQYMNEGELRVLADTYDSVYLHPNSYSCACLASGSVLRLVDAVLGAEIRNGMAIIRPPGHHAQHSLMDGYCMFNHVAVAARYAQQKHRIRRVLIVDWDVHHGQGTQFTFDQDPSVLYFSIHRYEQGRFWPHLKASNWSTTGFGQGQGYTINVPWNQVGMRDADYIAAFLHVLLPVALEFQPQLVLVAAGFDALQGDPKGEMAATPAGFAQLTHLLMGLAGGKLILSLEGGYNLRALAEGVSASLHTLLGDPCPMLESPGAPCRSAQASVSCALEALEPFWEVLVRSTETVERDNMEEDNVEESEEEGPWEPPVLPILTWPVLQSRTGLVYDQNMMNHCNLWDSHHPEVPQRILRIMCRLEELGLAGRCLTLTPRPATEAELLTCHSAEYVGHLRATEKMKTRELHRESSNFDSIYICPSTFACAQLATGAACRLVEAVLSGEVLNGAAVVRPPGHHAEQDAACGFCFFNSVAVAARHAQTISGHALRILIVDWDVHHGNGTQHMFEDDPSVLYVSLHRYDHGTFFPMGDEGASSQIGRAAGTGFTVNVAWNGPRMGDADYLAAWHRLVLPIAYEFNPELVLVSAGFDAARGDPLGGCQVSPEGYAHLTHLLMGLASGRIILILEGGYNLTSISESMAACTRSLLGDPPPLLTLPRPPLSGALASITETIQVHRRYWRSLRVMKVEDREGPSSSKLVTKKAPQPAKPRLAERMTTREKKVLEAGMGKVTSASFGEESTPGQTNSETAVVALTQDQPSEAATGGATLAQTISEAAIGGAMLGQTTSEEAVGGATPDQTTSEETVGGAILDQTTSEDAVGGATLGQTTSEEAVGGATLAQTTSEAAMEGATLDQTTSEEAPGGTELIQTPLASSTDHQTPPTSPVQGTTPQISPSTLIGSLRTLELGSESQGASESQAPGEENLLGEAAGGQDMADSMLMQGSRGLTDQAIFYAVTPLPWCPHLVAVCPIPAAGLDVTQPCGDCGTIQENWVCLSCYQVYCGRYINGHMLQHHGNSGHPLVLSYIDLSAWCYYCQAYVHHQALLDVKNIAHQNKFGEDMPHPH

- IC50 [1]: 4 µM
Compound: CC[C@H](C)[C@@H]1NC(=O)[C@H](CNC(=O)CBr)NC(=O)[C@H](CC(=O)O)NC(=O)[C@H](CC(=O)O)NC(=O)CNC(=O)[C@@H]2CCCN2C(=O)[C@H](C)NC(=O)[C@H](CCCNC(=N)N)NC(=O)[C@H]([C@@H](C)O)NC(=O)[C@H](CCC(N)=O)NC(=O)[C@H]([C@@H](C)O)NC(=O)CCSCCN(CC(N)=O)C(=O)[C@H](Cc2ccccc2)NC(=O)[C@H]([C@@H](C)O)NC1=O ([Mpa]TQTRAPGDD[Dap](BrAc)ITF[X1]-NH2; thioether 1-15)

Compound: C[C@@H](O)[C@@H]1NC(=O)[C@H](CCC(=O)O)NC(=O)[C@H](CO)NC(=O)[C@H](CC(=O)O)NC(=O)[C@@H](N)Cc2ccc(cc2)OCCSC[C@@H](C(=O)O)NC(=O)[C@H](CCC(=O)O)NC(=O)CNC1=O (H-YDSETGEC-OH; linker 1-8 via CH2CH2)
- IC50 [2]: 2.8 nM
- Kd [3]: 110 nM

- IC50 [4]: 800 nM
Compound: CC1CCN(C[C@@H]2NC(=O)[C@H](CCCNC(=N)N)NC(=O)[C@H](Cc3ccccc3)NC(=O)[C@H](CC(N)=O)NC(=O)[C@H](CCCNC(=N)N)NC(=O)[C@H](Cc3ccccc3)NC(=O)[C@H](CC(N)=O)NC(=O)[C@H](C(C)C)NC(=O)[C@H](Cc3ccccc3)NC(=O)[C@H](Cc3ccc(O)cc3)NC(=O)CSC[C@@H](CNCC(N)=O)NC(=O)[C@H](CCCNC(=N)N)NC(=O)[C@H](Cc3ccccc3)NC2=O)CC1 (YFVNFRNFR[X2]FR; linker N-C via X3)

- Kd [5]: 50 µM
Compound: NNc1ccc(S(N)(=O)=O)cc1

Compound: COc1ccc([C@H](C)N(CC(=O)N(CCCOC(C)C)CC(=O)N(CC(=O)N(CCc2ccccc2Oc2ccccc2)CC(=O)O)c2cc(OC)cc(OC)c2)C(=O)CN(C(=O)[C@@H](C)N)[C@@H](C)c2ccc(OC)cc2)cc1
- IC50 [6]: > 20 µM
- IC50 [7]: 7.1 µM

Compound: CSCC[C@@H]1NC(=O)[C@H](Cc2c[nH]c3ccccc23)NC(=O)[C@H](CCCNC(=N)N)NC(=O)[C@H](Cc2c[nH]c3ccccc23)NC(=O)[C@H](CCCNC(=N)N)NC(=O)[C@H](C)NC(=O)[C@@H](NC(=O)[C@@H](N)C(C)C)CSC/C(=N/OCC(=O)CP(=O)(Oc2ccccc2)Oc2ccccc2)CSC[C@@H](C(=O)NCC(=O)O)NC(=O)[C@@H]2CCCN2C1=O
- IC50 [8]: 647 nM

- IC50 [9]: 17 nM
Compound: CCCC[C@@H]1NC(=O)[C@H](Cc2ccccc2)NC(=O)[C@H](CCCCCS)NC(=O)[C@H](CCCNC(=N)N)NC(=O)[C@H](CC(=O)O)NC(=O)[C@H](CO)NC(=O)[C@H](C)NC(=O)[C@H](CCCCN)NC1=O (cyclo(ASDR[Gly((CH2)5SH)]F[Nle]K))
